{
  "source": "patent US20230100367A1",
  "about": "“METHODS OF TREATING CDGSH IRON SULFUR DOMAIN 2 INSUFFICIENCY-ASSOCIATED DISORDERS” (National Yang Ming Chiao Tung University, priority 2021, published 2023)",
  "key": {"Cisd2 hKO-het mice": {"tested_on": "Cisd2 hKO-het mice", "test": "In vivo study for treating nonalcoholic fatty liver disease (NAFLD)", "settings": "0.015 wt % in diet for 4 weeks", "experimental": "Compound 1 was evaluated for its anti-nonalcoholic fatty liver disease (“NAFLD”) effect and in vivo toxicity following an assay described below.\nCisd2 floxed allele (Cisd2 f/f) mice were prepared following a procedure described in Wang et al., Hum. Mol. Genet.23, 4770-85 (2014). To obtain Cisd2 heterozygous hepatocyte-specific knockout (Cisd2 hKO-het, Cisd2 f/+; Alb-Cre Tg), Cisd2 f/f mice were bred with Albumin-Cre transgenic (Alb-Cre Tg, JAX003574) mice. After one generation, Cisd2 hKO-het mice were obtained. Male mice were chosen to be used in this study. All mice have a pure or congenic C57BL/6 background and were bred/housed in a specific pathogen-free facility with a 12 h light/12 h dark cycle at a temperature of 20-22° C. Groups of mice at 8 weeks old were provided a diet (AIN93G, TestDiet) containing a vehicle (0.14 wt % of DMF and 0.15 wt % of Cremophor® EL) or compound 1 (0.015 wt %) for 4 weeks.\nHistopathology was used to evaluate the efficacy of Compound 1 in ameliorating NAFLD. Liver tissues were collected and fixed with 10% neutral buffered formalin at 4° C. overnight. They were then processed in a tissue processor (STP120, Microm, Thermo Fisher Scientific Inc., Waltham, Mass.), followed by embedding in paraffin. H&E of tissue sections (3-4 μm) were carried out by a standard protocol. […]"}, "WT mice": {"tested_on": "WT mice", "test": "In vivo fructose-induced NASH model, wild-type mice", "settings": "0.015 wt % in diet for 5 months", "description": "Compound 1 was used to alleviate nonalcoholic steatohepatitis (NASH) in wild-type and Cisd2 hKO male mice described above.\nCisd2 hKO were bred for two generations. […] They were fed 30% (w/v) fructose (Alfa Aesar, Tewksbury, Mass.) in drinking water to establish a fructose-induced NASH model. Groups of mice at 2 months old were provided with a diet (AIN93G, TestDiet, St. Louis, Mo.) containing a vehicle (0.14 wt % of DMF and 0.15 wt % of Cremophor® EL) or Compound 1 (0.015 wt %) for 5 months. The food and drinking water were provided ad libitum.\nHistopathology was used to evaluate the efficacy of Compound 1 in alleviating NASH. Liver tissues were processed and stained as described in Example 3 above.\nAn oral glucose tolerance test (GTT) and an insulin tolerance test (ITT) were performed to study beneficial effects of Compound 1 in the fructose-induced glucose intolerance and hepatic insulin resistant mouse model. In the oral glucose tolerance test, mice were fasted for 14 hours (7 p.m. to 9 a.m.) and then were orally administrated with glucose water (1.5 mg/g body weight) using a feeding needle. […] Blood glucose levels were measured using OneTouch® Ultra glucose test strips and SureStep® Meter (LifeScan, Milpitas, Calif.). […] Blood samples were collected and monitored at predetermined time points."}, "[1]": {"tested_on": "Cisd2 promoter with firefly luciferase reporter (HEK293-CISD2)", "test": "Cisd2-luciferase reporter assay", "assay_type": "cell-based", "settings": "Homo sapiens; HEK293-CISD2 cells, 24 h incubation, luciferase activity", "experimental": "Compounds 1-35 were tested for increasing the level of Cisd2 in human embryonic kidney cells 293 (HEK293), a transfected cell line expressing Cisd2, using the Cisd2-luciferase reporter assay as described below.\nThe transfected HEK293 cells stably expressed Cisd2 promoter with firefly luciferase reporter (“HEK293-CISD2”). They were kept in Dulbecco's modified Eagle's medium (“DMEM”) (Gibco, New York, N.Y.). Culture medium was supplemented with 10% heat-inactivated fetal bovine serum (“FBS”), 2 mM L-Glutamine, 1 mM sodium pyruvate, 0.1% MEM Non-Essential Amino Acids, 1 μg/ml puromycin and 1% penicillin/streptomycin (HyClone, Logan, Utah). The cells were maintained at 37° C. in an incubator (Thermo Fisher Scientific, Waltham, Mass.) with an atmosphere of 5% CO2. The stably transfected cells were seeded in 384-well plates at a density of 3×10^3 cells/well. After incubation with a tested compound at 37° C. for 24 h, ONE-Glo™ Luciferase Assay System (Promega, Madison, Wis.) was added at room temperature for 10 minutes to detect any luciferase activity. Luminescence intensity was registered using plate reader BioTek Synergy Neo2™ (Agilent, Santa Clara, Calif.).\nEC50 values in this table are presented in […] classes, i.e., A: <1 μM and B: 1 μM-10 μM."}},
  "note": "pEC50: −log10 of the molar value.",
  "data": [
    {"smiles": "COC(=O)c1c(N)sc(C(=O)Nc2ccc(C)cc2C)c1C", "note": "[Compound 1, Methyl 2-amino-5-[(2,4-dimethylphenyl)carbamoyl]-4-methylthiophene carboxylate]", "values": [
      {"measurement": "liver and kidney toxicity (serum ALT, AST, BUN, CRE)", "setting": "Cisd2 hKO-het mice", "value": "without detectable liver and kidney toxicity"},
      {"measurement": "expression level of Cisd2 protein", "setting": "Cisd2 hKO-het mice; Cisd2+/- mice, control group 0.43", "value": 0.7},
      {"measurement": "toxicity", "setting": "WT mice", "value": "without obvious toxicity"},
      {"measurement": "Cisd2 protein level", "setting": "WT mice; 30% fructose in drinking water, control group 0.4", "value": 0.8},
      {"measurement": "pEC50", "setting": "[1]", "value": "> 6.00"}
    ]}
  ]
}
